The source of these data is article PMC6849348, “Theranostic Application of a Novel G-Quadruplex-Forming DNA Aptamer Targeting Malate Synthase of Mycobacterium tuberculosis” (Molecular Therapy. Nucleic Acids, 2019).

One may read the IC50 as the point on the concentration scale where inhibition reaches its midpoint.

SMILES strings stand for the structures.

The experiment has as its target MS (malate synthase, GlcB, Rv1837c) (Mycobacterium tuberculosis, UniProt P9WK17). As to the kind of experiment: DTNB assay of released CoA-SH at […] nm. It counts as biochemical.

Chain of MS (malate synthase, GlcB, Rv1837c) (P9WK17 whole entry, looked up): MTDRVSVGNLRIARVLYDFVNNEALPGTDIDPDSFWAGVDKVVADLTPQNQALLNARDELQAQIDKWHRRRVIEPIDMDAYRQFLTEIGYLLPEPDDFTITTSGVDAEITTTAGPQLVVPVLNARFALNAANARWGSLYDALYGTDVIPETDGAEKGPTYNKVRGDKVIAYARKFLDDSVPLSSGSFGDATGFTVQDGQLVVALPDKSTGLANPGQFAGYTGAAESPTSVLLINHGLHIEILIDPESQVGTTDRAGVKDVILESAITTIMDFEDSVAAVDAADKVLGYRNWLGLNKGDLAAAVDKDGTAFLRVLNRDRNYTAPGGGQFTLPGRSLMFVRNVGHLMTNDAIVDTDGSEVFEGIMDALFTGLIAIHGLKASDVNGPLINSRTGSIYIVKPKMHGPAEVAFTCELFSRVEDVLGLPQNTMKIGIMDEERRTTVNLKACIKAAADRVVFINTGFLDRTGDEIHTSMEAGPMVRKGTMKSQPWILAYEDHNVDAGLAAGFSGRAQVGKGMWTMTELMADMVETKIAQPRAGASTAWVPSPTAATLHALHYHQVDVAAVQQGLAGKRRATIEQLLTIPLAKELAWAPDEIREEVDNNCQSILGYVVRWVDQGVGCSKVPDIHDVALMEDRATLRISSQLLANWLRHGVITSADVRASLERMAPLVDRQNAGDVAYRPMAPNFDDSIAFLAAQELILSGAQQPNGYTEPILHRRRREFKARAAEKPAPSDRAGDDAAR

With `O=C(O)C(=O)CBr` [bromopyruvate], the IC50 is 114 µM.

Consider `C=C(OP(=O)(O)O)C(=O)O` [phosphoenolpyruvate], for which the IC50 stood at 374 µM.
